{"source": "patent US10265326B2", "about": "“Form C of avibactam sodium” (Sandoz AG, priority 2015, dated 2019)", "key": {"[1]": {"assay": "Gravimetric moisture sorption", "format": "physicochemical", "settings": "relative humidity 0 to 60%, (25.0±0.1) °C", "protocol": "Moisture sorption isotherms were recorded with an SPSx-1μ moisture sorption analyzer (ProUmid, Ulm). The measurement cycle was started at ambient relative humidity (RH) of 30% and first decreased to 3% RH and then to 0% RH. […] The time per step was set to a minimum of 2 hours and a maximum of 6 hours. If an equilibrium condition with a constant mass of ±0.01% within 1 hour was reached before the maximum time for all examined samples the sequential humidity step was applied before the maximum time of 6 hours. If no equilibrium was achieved the consecutive humidity step was applied after the maximum time of 6 hours. The temperature was 25±0.1° C."}, "[2]": {"assay": "Stress tests: open storage at room temperature over saturated salt solutions at different relative humidities, analysis by PXRD", "format": "physicochemical", "settings": "for physical form found by PXRD after stress test: open storage", "protocol": "Powder X-ray diffraction (PXRD) was performed with a PANalytical X'Pert PRO diffractometer equipped with a theta/theta coupled goniometer in transmission geometry, Cu-Kalpha1,2 radiation (wavelength 0.15419 nm) with a focusing mirror and a solid state PIXcel detector. Diffractograms were recorded at a tube voltage of 45 kV and a tube current of 40 mA, applying a stepsize of 0.013° 2-Theta with 40 s per step (255 channels) in the angular range of 2° to 40° 2-Theta at ambient conditions. A typical precision of the 2-Theta values is in the range of ±0.2° 2-Theta. Thus, the diffraction peak of substantially pure form C that appears for example at 6.5° 2-Theta can appear between 6.3 and 6.7° 2-Theta on most X-ray diffractometers under standard conditions.\nCrystalline form C (prepared according to example 1 herein) was open stored at room temperature in desiccators over saturated salt solutions generating different relative humidities."}}, "note": "“Also recorded” adds a separate entry of the source.", "data": [{"smiles": "NC(=O)[C@@H]1CC[C@@H]2CN1C(=O)N2OS(=O)(=O)O.[Na]", "note": "[form C, sodium salt of (1R,2S,5R)-7-oxo-6-sulfooxy-1,6-diazabicyclo[3.2.1]octane-2-carboxamide]", "values": [{"measurement": "weight change, based on the weight of crystalline form C", "setting": "[1]", "result": "not more than 0.5%"}, {"measurement": "relative humidity at or below which no transformation into any other physical form occurs", "setting": "[2]", "result": "≤ 55", "unit": "%"}, {"measurement": "physical form found by PXRD after stress test", "setting": "[2]; 45% relative humidity (K2CO3), 9 days", "result": "substantially pure form C after 9 days and after"}, {"measurement": "physical form found by PXRD after stress test", "setting": "[2]; 45% relative humidity (K2CO3), 277 days", "result": "remains stable; also recorded: substantially pure form C after 9 days and after"}, {"measurement": "physical form found by PXRD after stress test", "setting": "[2]; 55% relative humidity (Ca(NO3)2 x 4H2O), 9 days", "result": "remains stable; also recorded: substantially pure form C after 9 days"}, {"measurement": "physical form found by PXRD after stress test", "setting": "[2]; 63% relative humidity (NaBr), 3 days", "result": "traces of form A detectable after 3 days"}, {"measurement": "physical form found by PXRD after stress test", "setting": "[2]; 75% relative humidity (NaCl), 3 days", "result": "mainly form A with traces of form C after"}, {"measurement": "physical form found by PXRD after stress test", "setting": "[2]; 86% relative humidity (KCl), one day", "result": "form A after one day"}]}]}
